Test systems include SK-OV-3 ovarian; U251 CNS; CCRF-CEM leukemia; COLO 205 colon; SK-MEL-5 melanoma; K-562 leukemia; SW-620 colon; NCI-H23 lung.
Holding throughout (assay): growth of human tumour cells (NCI), 48 h

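Interpolation was linear, between the two tested concentrations surrounding the appropriate level; five concentrations were tested over 48 hours in 96-well plates. GI50: concentration for 50% inhibition of growth. Definition used: TGI = concentration required for complete inhibition of growth.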

As for `CC[C@@H](C(=O)[C@@H](C)[C@@H](O)[C@H](C)[C@@H]1O[C@@H]([C@@H](CC)C(=O)O)CC[C@@H]1C)[C@H]1OC2(C=C[C@@H](O)[C@]3(CC[C@@](C)([C@H]4CC[C@](O)(CC)[C@H](C)O4)O3)O2)[C@H](C)C[C@@H]1C` (stereo partly specified), the GI50 in the assay on SK-OV-3 ovarian is 1.76 µM; in the assay on U251 CNS, 135 nM; with CCRF-CEM leukemia, 285 nM; with COLO 205 colon, 0.124 µM; with SK-MEL-5 melanoma it was 0.16 µM; in the assay on K-562 leukemia, 213 nM. In addition, the GI50 was 733 nM in the assay with SW-620 colon and 0.207 µM in the assay with NCI-H23 lung. The TGI with SK-OV-3 ovarian turned out to be 22.6 µM; with U251 CNS, 5.56 µM; with CCRF-CEM leukemia, 10.7 µM; in the assay with COLO 205 colon it was 5.47 µM; with SK-MEL-5 melanoma, 0.534 µM; with K-562 leukemia, 3.39 µM. Besides, the TGI with SW-620 colon turned out to be 9.14 µM; in the assay with NCI-H23 lung, 15.4 µM.
In the case of `Cc1nc(/N=C(\N)NC(=O)Nc2ccccc2Cl)sc1C`, the GI50 was 0.735 µM with SK-OV-3 ovarian; 439 nM in the assay on U251 CNS; 352 nM in the assay on CCRF-CEM leukemia; 0.474 µM in the assay with COLO 205 colon; 0.508 µM in the assay with SK-MEL-5 melanoma; 86.1 nM with K-562 leukemia. The GI50 in the assay on SW-620 colon is 329 nM; in the assay with NCI-H23 lung it was 0.687 µM. Further, the TGI with SK-OV-3 ovarian is 5.54 µM; with U251 CNS, 6.13 µM; in the assay with CCRF-CEM leukemia it was greater than 53.2 µM; in the assay with COLO 205 colon, 4.57 µM; in the assay with SK-MEL-5 melanoma, 7.39 µM; in the assay with K-562 leukemia, greater than 100 µM. For the same molecule, the TGI with SW-620 colon is greater than 100 µM; with NCI-H23 lung, greater than 74.9 µM.
For the molecule `O=C1c2ccccc2-c2c1c1ccccc1c(=O)n2CCCN1CCN(CCCn2c3c(c4ccccc4c2=O)C(=O)c2ccccc2-3)CC1`, the GI50 with SK-OV-3 ovarian is greater than 100 µM; with U251 CNS, 5440 nM; in the assay with CCRF-CEM leukemia it was 13800 nM; in the assay on COLO 205 colon it was greater than 100 µM; in the assay with SK-MEL-5 melanoma, greater than 100 µM; in the assay with K-562 leukemia it was 42700 nM. In addition, the GI50 in the assay with SW-620 colon was greater than 100000 nM; with NCI-H23 lung it was 34.5 µM. Also, the TGI with SK-OV-3 ovarian was greater than 100 µM; in the assay on U251 CNS, 18.7 µM; with CCRF-CEM leukemia it was greater than 100 µM; in the assay on COLO 205 colon, greater than 100 µM; with SK-MEL-5 melanoma, greater than 100 µM; in the assay on K-562 leukemia, greater than 100 µM. Besides, the TGI was greater than 100 µM with SW-620 colon and greater than 83.8 µM in the assay on NCI-H23 lung.
Regarding `O=S1(=O)CS(=O)(=O)OCCCO1`, the TGI with SK-OV-3 ovarian, in the assay with U251 CNS, in the assay on CCRF-CEM leukemia, in the assay with COLO 205 colon, in the assay on SK-MEL-5 melanoma and in the assay with K-562 leukemia was greater than 100 µM throughout. Also, the TGI with SW-620 colon and with NCI-H23 lung was greater than 100 µM in each case.
On to `CC(=O)OC[C@]12CC[C@@H]([C@@H](C)C(N)=O)[C@@H]1[C@H]1CC[C@@H]3[C@@]4(C)CC[C@H](OC(C)=O)C(C)(C)[C@@H]4CC[C@@]3(C)[C@]1(C)CC2`, for which the GI50 was 13.4 µM in the assay on SK-OV-3 ovarian; 5100 nM with U251 CNS; 5190 nM with CCRF-CEM leukemia; 4.31 µM with COLO 205 colon; 3.8 µM with SK-MEL-5 melanoma; 4090 nM in the assay with K-562 leukemia. Also, the GI50 in the assay with SW-620 colon was 7690 nM; with NCI-H23 lung, 9.42 µM. Further, the TGI in the assay with SK-OV-3 ovarian came to 64 µM; in the assay on U251 CNS it was 20.4 µM; in the assay on CCRF-CEM leukemia, 30 µM; in the assay with COLO 205 colon, 25 µM; in the assay on SK-MEL-5 melanoma, 13.1 µM; in the assay with K-562 leukemia, 35.7 µM. Further, the figures for the TGI in the assay on SW-620 colon and in the assay on NCI-H23 lung were 24.2 µM and 33.6 µM, respectively.
Turning to `CC(=O)OCC1OC(OC2=C(CC=C(Cl)Cl)C(=O)c3ccccc3C2=O)C(OC(C)=O)C(OC(C)=O)C1OC(C)=O` (stereo unspecified), the GI50 was 15.1 µM in the assay with SK-OV-3 ovarian; 3540 nM in the assay on U251 CNS; 894 nM in the assay with CCRF-CEM leukemia; 13.6 µM with COLO 205 colon; 4.32 µM in the assay with SK-MEL-5 melanoma; 1060 nM in the assay with K-562 leukemia. For the same molecule, the GI50 is 1740 nM in the assay on SW-620 colon and 13.2 µM in the assay on NCI-H23 lung. In addition, the TGI in the assay with SK-OV-3 ovarian is 28.7 µM; with U251 CNS, 13.3 µM; with CCRF-CEM leukemia it was greater than 100 µM; with COLO 205 colon, 36.3 µM; with SK-MEL-5 melanoma it was 17 µM; in the assay with K-562 leukemia it was greater than 100 µM. In addition, the results for the TGI in the assay with SW-620 colon and in the assay on NCI-H23 lung were 3.88 µM and 36.8 µM, respectively.
As to `COc1c(CNC(=O)CCl)cc2[nH]c(C)cc2c1CNC(=O)CCl`, the GI50 in the assay with SK-OV-3 ovarian was 12.4 µM; in the assay on U251 CNS it was 1940 nM; in the assay with CCRF-CEM leukemia it was 2710 nM; in the assay on COLO 205 colon, 10.6 µM; in the assay with SK-MEL-5 melanoma, 8.02 µM; in the assay on K-562 leukemia it was 8420 nM. Further, the values for the GI50 in the assay with SW-620 colon and with NCI-H23 lung were 5610 nM and 7.14 µM, respectively. The TGI in the assay on SK-OV-3 ovarian is 86.4 µM; in the assay on U251 CNS it was 4.7 µM; in the assay with CCRF-CEM leukemia, greater than 100 µM; in the assay with COLO 205 colon, 27.8 µM; in the assay with SK-MEL-5 melanoma it was 25 µM; in the assay with K-562 leukemia, greater than 100 µM. For the same molecule, the values for the TGI with SW-620 colon and in the assay with NCI-H23 lung were 20.7 µM and 31.3 µM, respectively.
As to `C/C(=C\CCc1ccoc1)CC/C=C(\C)CCCN1CCC(CO)CC1`, the GI50 in the assay on SK-OV-3 ovarian was 6.94 µM; with U251 CNS, 2410 nM; with CCRF-CEM leukemia it was 2420 nM; in the assay on COLO 205 colon, 1.94 µM; in the assay with SK-MEL-5 melanoma, 1.5 µM; in the assay on K-562 leukemia it was 1520 nM. Moreover, the GI50 with SW-620 colon is 2060 nM; in the assay with NCI-H23 lung it was 3.78 µM. Further, the TGI in the assay with SK-OV-3 ovarian was 20 µM; in the assay on U251 CNS it was 9.24 µM; in the assay with CCRF-CEM leukemia, 6.47 µM; in the assay on COLO 205 colon, 3.98 µM; with SK-MEL-5 melanoma, 2.84 µM; in the assay with K-562 leukemia, 3.86 µM. Also, the TGI in the assay with SW-620 colon is 5.08 µM; with NCI-H23 lung, 14.7 µM.
Consider `COc1cc2c3c(n(C)c(=O)c2cc1OC)-c1cc2c(cc1/C3=C\CCCBr)OCO2`, for which the GI50 with SK-OV-3 ovarian was 18.1 µM; with U251 CNS, 13200 nM; with CCRF-CEM leukemia, 14300 nM; with COLO 205 colon, 18.8 µM; with SK-MEL-5 melanoma, greater than 69.5 µM; with K-562 leukemia it was 58300 nM. Moreover, the figures for the GI50 in the assay with SW-620 colon and in the assay on NCI-H23 lung were greater than 100000 nM and 19.6 µM, respectively. Further, the TGI in the assay with SK-OV-3 ovarian was 44.8 µM; in the assay on U251 CNS it was greater than 60.3 µM; in the assay with CCRF-CEM leukemia, 50.3 µM; with COLO 205 colon, 55.8 µM; in the assay with SK-MEL-5 melanoma it was greater than 100 µM; in the assay with K-562 leukemia it was greater than 100 µM. Moreover, the TGI was greater than 100 µM in the assay with SW-620 colon and 49.6 µM in the assay on NCI-H23 lung.
